In ChEMBL document CHEMBL1201862, “PubChem BioAssay data set” (2004):
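Grown in 96-well plates, cells were treated for 48 hours with each compound at five concentrations. Insufficient inhibition: endpoint recorded as highest concentration tested. Abbreviation: GI50, concentration required for 50% inhibition of growth.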 Activity calls are given as the source filed them. Rule as the data show it: active = GI50 up to about 1.1 µM and inactive = higher.

What was measured:
Experiment in all cases: NCI anticancer screen, dose series, 48 h
[1] = test system: DMS-114
[2] = test system: SNB-78
[3] = test system: DMS-273
[4] = test system: LXFL 529
[5] = test system: M19-MEL
[6] = test system: RXF 631

SMILES	GI50 [1]	GI50 [2]	GI50 [3]	GI50 [4]	GI50 [5]	GI50 [6]
CCOC(=O)Nc1ccc(S(=O)(=O)OC)cc1.CCOC(=O)Nc1ccc(S(=O)(=O)OC)cc1.Nc1ncnc2c1ncn2C1OC(CO)C(O)C1O (centres undefined)	18 µM (inactive)	> 100 µM (inactive)	30.8 µM (inactive)	> 100 µM (inactive)	21.9 µM (inactive)	> 100 µM (inactive)
C[C@@H](NC1CCC[C@@H]1O)c1ccccc1 (some centres undefined)	> 100 µM (inactive)	> 100 µM (inactive)	> 100 µM (inactive)	> 100 µM (inactive)	> 100 µM (inactive)	
Cc1cn(C2CC(N(O)Cc3ccccc3)C(CO)O2)c(=O)[nH]c1=O (centres undefined)	> 100 µM (inactive)	> 100 µM (inactive)	> 100 µM (inactive)	> 100 µM (inactive)	> 100 µM (inactive)	
CCOC(=O)CC1=Nc2ccccc2SC1	> 100 µM (inactive)	> 100 µM (inactive)	> 100 µM (inactive)	> 100 µM (inactive)	> 100 µM (inactive)	> 100 µM (inactive)
O=C(CC1=Nc2nnc(CCCCCCCc3nnc4n3C(=O)C(CC(=O)c3ccc5ccccc5c3)=N4)n2C1=O)c1ccc2ccccc2c1	> 100 µM (inactive)	> 100 µM (inactive)	> 100 µM (inactive)	> 100 µM (inactive)	> 100 µM (inactive)	51.9 µM (inactive)
O=C1CC2C(=O)N(Cc3ccccc3)C1C(S(=O)(=O)c1ccccc1)C2S(=O)(=O)c1ccccc1 (centres undefined)	1.29 µM (inactive)	11.2 µM (inactive)	5.46 µM (inactive)	1.31 µM (inactive)	2.06 µM (inactive)	12.5 µM (inactive)
CC(=O)CCC1(c2ccccc2)OC(=O)C(C#N)=C1c1ccccc1 (centres undefined)	> 100 µM (inactive)	> 100 µM (inactive)	> 100 µM (inactive)	59.4 µM (inactive)	> 100 µM (inactive)	> 100 µM (inactive)
CC(=O)Oc1ccc(O)c(O)c1C/C=C(\C)CC/C=C(\C)CC/C=C(\C)CCC=C(C)C [TETRAPRENYLPHENOLSUILLIN]	0.35 µM (active)	0.272 µM (active)	0.246 µM (active)	0.284 µM (active)	0.393 µM (active)	
NC(CSSCC(N)Cc1ccccc1)Cc1ccccc1 (centres undefined)	39.2 µM (inactive)	> 100 µM (inactive)	> 10 µM (inactive)	36.1 µM (inactive)	49 µM (inactive)	
COc1cccc2cc(C)c(C(=O)c3ccccc3)nc12	> 100 µM (inactive)	> 100 µM (inactive)	> 100 µM (inactive)	> 100 µM (inactive)	> 100 µM (inactive)	> 100 µM (inactive)
CN1CN(C2OC(CO)C(O)C2O)c2nc(N)[nH]c(=O)c21 (centres undefined)	> 100 µM (inactive)	> 100 µM (inactive)	> 100 µM (inactive)	> 100 µM (inactive)	> 100 µM (inactive)	
C[C@]12CC/C(=N\O)C=C1CC[C@@H]1C2CC[C@@]2(C)C1CC[C@@H]2OC1CCCCO1 (some centres undefined)	22 µM (inactive)	19.1 µM (inactive)	17.7 µM (inactive)	17.2 µM (inactive)	19.1 µM (inactive)	
Cc1cc(Br)cc(C)c1NC(=O)C(=O)C(C(=O)c1ccncc1)C1OC(=O)c2ccccc21 (centres undefined)	> 100 µM (inactive)	> 100 µM (inactive)	> 100 µM (inactive)	> 100 µM (inactive)		> 100 µM (inactive)
COCC1C(=O)c2cc3c(cc2C12C=CC1(C=C2)OCCO1)OCO3 (centres undefined)	2.99 µM (inactive)		11.1 µM (inactive)	2.49 µM (inactive)	2.93 µM (inactive)	4.59 µM (inactive)
O=C(NO)C12C3C4C1C1C2C3C41C(=O)NO (centres undefined)	> 100 µM (inactive)	> 100 µM (inactive)	> 100 µM (inactive)	37.2 µM (inactive)	> 100 µM (inactive)	
O=C1CC(c2c[nH]c3ccccc23)C(=O)N1 (centres undefined)		> 100 µM (inactive)	> 100 µM (inactive)	> 100 µM (inactive)	> 100 µM (inactive)	> 100 µM (inactive)
CCC(=O)NCC1(c2c[nH]c3ccccc23)SCCS1	47.5 µM (inactive)	> 100 µM (inactive)	> 100 µM (inactive)	> 100 µM (inactive)	> 100 µM (inactive)	
COC(=O)C1C2C=CC(C2)C1(C(=O)OC)[S+]([O-])CC12CCC(CC1O)C2(C)C (centres undefined)	85.7 µM (inactive)	> 100 µM (inactive)	44.4 µM (inactive)	> 100 µM (inactive)	> 100 µM (inactive)	> 100 µM (inactive)
COC(=O)/C(=N\Nc1nc(S)nn1N)C(C#N)c1ccc(Cl)cc1 (centres undefined)	> 100 µM (inactive)	> 100 µM (inactive)	> 100 µM (inactive)	> 100 µM (inactive)	> 100 µM (inactive)	> 100 µM (inactive)
O=C(Cc1csc(-c2nc(CC(=O)NNc3ccccc3)cs2)n1)NNc1ccccc1	25.6 µM (inactive)	> 100 µM (inactive)	12.8 µM (inactive)	91.2 µM (inactive)	> 100 µM (inactive)	> 10 µM (inactive)
